# pIC50: −log10 of the molar value.
# Target: T1, hyaluronan synthase (Streptococcus pyogenes, UniProt P0C0H0, K60N)
# T1 construct: FLAG; made in house; host or cells: Escherichia coli SURE, plasmid pKK223-3
# T1 sequence (P0C0H0 1-419 K60N): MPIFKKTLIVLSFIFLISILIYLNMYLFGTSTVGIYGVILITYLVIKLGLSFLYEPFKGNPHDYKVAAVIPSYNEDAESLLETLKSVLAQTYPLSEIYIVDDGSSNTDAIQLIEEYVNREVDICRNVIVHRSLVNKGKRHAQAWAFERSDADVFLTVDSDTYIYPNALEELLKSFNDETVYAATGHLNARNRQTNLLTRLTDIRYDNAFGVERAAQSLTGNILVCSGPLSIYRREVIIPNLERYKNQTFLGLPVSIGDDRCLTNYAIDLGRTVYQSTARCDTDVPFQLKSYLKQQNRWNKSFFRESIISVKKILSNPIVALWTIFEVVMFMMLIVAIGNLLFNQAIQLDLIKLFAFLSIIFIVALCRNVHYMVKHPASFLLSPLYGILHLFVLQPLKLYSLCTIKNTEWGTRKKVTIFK
# Assay: Inhibitory concentration IC50 of uridine diphosphate against hyaluronan synthase (HPLC of hyaluronan)
# Assay type: biochemical, Streptococcus equisimilis
# Details: hyaluronan synthase (B-1) 1.5 U/mL, 40° C., pH 7.5
# Method: An enzyme reaction solution (I) containing specific amounts of polysaccharide synthase (B), ribonucleoside diphosphate-monosaccharide (A), ribonucleoside diphosphate, pH adjuster (K), and water is prepared, which is adjusted to a specific temperature and a specific pH. […]
# A portion (e.g., 100 μL) of the enzyme reaction solution (I) prepared is extracted immediately after preparation and at certain time intervals (e.g., 5 min). […] Using liquid chromatography (hereinafter abbreviated as HPLC), the amount of polysaccharide in each extracted reaction solution is quantitated. An initial enzyme reaction velocity v (M/s) is calculated from the difference ΔP (ΔP=Ph−P0) in peak areas and a calibration curve based on the peak areas of the polysaccharide, wherein P0 is the peak area immediately after preparation of the enzyme reaction solution (I), and Ph is the peak area after h hour(s) from preparation. […]
compound,measurement,value
O=c1ccn([C@@H]2O[C@H](COP(=O)(O)OP(=O)(O)O)[C@@H](O)[C@H]2O)c(=O)[nH]1 [uridine diphosphate],pIC50,3.96
